In patent US8377458B2, “Cooling sensation agent composition, sensory stimulation agent composition and use of the same” (Takasago International Corporation, priority 2009, dated 2013):

How the values were obtained:
[1] = system: inside of upper parts of arms; assay: Test of a cooling towel (direct spraying), sensory evaluation; format: in vivo, human (panelists)
Protocol: Those which were air-dried for 10 minutes, 3 hours or 24 hours after spraying were sensory evaluated. The sensory evaluation was carried out by touching the cooling towel with the inside of upper parts of arms, and cooling action at that time was determined. Meanwhile, the evaluation was carried out by five panelists having 5 years or longer experience. […] The results are shown by the total score of the ranking numbers. In other words, smaller total score means to show a better cooling sensation effect.

[2] = system: inside of upper parts of arms; assay: Test of a cooling towel (washing processed), sensory evaluation; format: in vivo, human (panelists); details: for total score of the ranking numbers (cooling effect on treated hand towel after washing): 1% in washing detergent
Protocol: The hand towel thus prepared and those after further air-dried for 24 hours or 48 hours were brought into contact with the inside of upper parts of arms, and the cooling action thereof was determined organoleptically. Meanwhile, the evaluation was carried out by five panelists having 5 years or longer experience. The above compounds, mixtures and menthoxypropanediol were divided into three groups of A to C (group A; […] The results are shown by the total score of the ranking numbers. […] In other words, smaller total score means to show a better cooling sensation effect.

[3] = Group A (5 samples ranked by 5 panelists, smaller = better), direct spraying 1 g of 1% ethanol solution, after 10 min air drying
[4] = Group A, direct spraying, after 3 hr air drying, smaller = better
[5] = Group A, direct spraying, after 24 hr air drying, smaller = better
[6] = Group B, direct spraying, after 10 min air drying, smaller = better
[7] = Group B, direct spraying, after 3 hr air drying, smaller = better
[8] = Group B, direct spraying, after 24 hr air drying, smaller = better
[9] = Group C, direct spraying, after 10 min air drying, smaller = better
[10] = Group C, direct spraying, after 3 hr air drying, smaller = better
[11] = Group C, direct spraying, after 24 hr air drying, smaller = better
[12] = Group B, after 6 hr, smaller = better
[13] = Group B, after 24 hr, smaller = better
[14] = Group B, after 48 hr, smaller = better
[15] = Group A (4 samples ranked by 5 panelists, smaller = better), after 6 hr air drying
[16] = Group A, after 24 hr, smaller = better
[17] = Group A, after 48 hr, smaller = better
[18] = Group C, after 6 hr, smaller = better
[19] = Group C, after 24 hr, smaller = better
[20] = Group C, after 48 hr, smaller = better

SMILES | total score of the ranking numbers (cooling effect on treated hand towel) [1, 3] | total score of the ranking numbers (cooling effect on treated hand towel) [1, 4] | total score of the ranking numbers (cooling effect on treated hand towel) [1, 5] | total score of the ranking numbers (cooling effect on treated hand towel) [1, 6] | total score of the ranking numbers (cooling effect on treated hand towel) [1, 7] | total score of the ranking numbers (cooling effect on treated hand towel) [1, 8] | total score of the ranking numbers (cooling effect on treated hand towel) [1, 9] | total score of the ranking numbers (cooling effect on treated hand towel) [1, 10] | total score of the ranking numbers (cooling effect on treated hand towel) [1, 11] | total score of the ranking numbers (cooling effect on treated hand towel after washing) [2, 12] | total score of the ranking numbers (cooling effect on treated hand towel after washing) [2, 13] | total score of the ranking numbers (cooling effect on treated hand towel after washing) [2, 14] | total score of the ranking numbers (cooling effect on treated hand towel after washing) [2, 15] | total score of the ranking numbers (cooling effect on treated hand towel after washing) [2, 16] | total score of the ranking numbers (cooling effect on treated hand towel after washing) [2, 17] | total score of the ranking numbers (cooling effect on treated hand towel after washing) [2, 18] | total score of the ranking numbers (cooling effect on treated hand towel after washing) [2, 19] | total score of the ranking numbers (cooling effect on treated hand towel after washing) [2, 20] | also measured
CC1CCC(C(C)C)C(OC(=O)CCCC(=O)OC2CC(C)CCC2C(C)C)C1 (stereo not drawn) [Dimenthylglutaric acid, reference compound] | 22 | 20 | 21 | 22 | 20 | 19 | 22 | 21 | 23 | – | – | – | – | – | – | – | – | – | –
C=C(C)C1CCC(C)CC1OC(=O)CCC(=O)OC1CC(C)CCC1C(C)C (stereo not drawn) [Compound 3, l-menthyl-(l-isopulegyl)succinic ester] | – | – | – | 16 | 10 | 10 | – | – | – | 11 | 10 | 10 | – | – | – | – | – | – | –
CC(C)[C@@H]1CC[C@@H](C)C[C@H]1OCC(O)COC(=O)CCC(=O)O[C@@H]1C[C@H](C)CC[C@H]1C(C)C (stereo partly drawn) [Compound 2, l-menthyl-3-(l-menthoxy)-2-(hydroxypropyl)succinic ester] | 18 | 13 | 13 | – | – | – | – | – | – | – | – | – | 13 | 11 | 12 | – | – | – | –
CC1CCC(C(C)C)C(OCC(O)CO)C1 (stereo not drawn) [Menthoxypropanediol, l-menthoxypropanediol, reference compound] | – | – | – | – | – | – | – | – | – | 18 | 19 | 20 | 19 | 20 | 19 | 19 | 20 | 19 | cooling action (in words) ([2]; after the washing treatment and 6 hours of air drying): almost no cooling action was observed
CC1CCC(C(C)C)C(OCCOC(=O)CCCC(=O)OC2CC(C)CCC2C(C)C)C1 (stereo not drawn) [Compound 8, l-menthyl-(l-menthoxyethyl)-glutaric ester] | – | – | – | – | – | – | 13 | 12 | 11 | – | – | – | – | – | – | 13 | 13 | 13 | –
CC1CCC(C(C)C)C(OC(=O)CCCC(=O)OCCc2ccccc2)C1 (stereo not drawn) [Compound 6, l-menthyl-(phenylethyl)glutaric ester] | – | – | – | 17 | 14 | 14 | – | – | – | 13 | 14 | 14 | – | – | – | – | – | – | –
CC(C)=CCCC(C)CCOC(=O)CCC(=O)OC1CC(C)CCC1C(C)C (stereo not drawn) [Compound 4, l-menthyl-(l-citronellyl)succinic ester] | – | – | – | – | – | – | 16 | 18 | 16 | – | – | – | – | – | – | 10 | 12 | 11 | –
CC1CCC(C(C)C)C(OCCOC(=O)CCC(=O)OC2CC(C)CCC2C(C)C)C1 (stereo not drawn) [Compound 1, l-menthyl-(l-menthoxyethyl)succinic ester] | 18 | 12 | 11 | – | – | – | – | – | – | – | – | – | 11 | 10 | 13 | – | – | – | –
CC(C)[C@@H]1CC[C@@H](C)C[C@H]1O [Compound 1-Menthol, l-menthol, reference compound] | 6 | 24 | 25 | 7 | 24 | 25 | – | – | – | – | – | – | – | – | – | – | – | – | cooling action (in words) ([1]; direct spraying, after air drying for 10 minutes): strongest cooling action; lasting / consistency of cooling action (in words) ([1]; direct spraying, over 10 min to 24 hr): less consistent
CC(C)=CCCC(C)CCOC(=O)CCCC(=O)OC1CC(C)CCC1C(C)C (stereo not drawn) [Compound 7, l-menthyl-(l-citronellyl)glutaric ester] | – | – | – | – | – | – | 15 | 17 | 18 | – | – | – | – | – | – | – | – | – | –
